Source: PubChem BioAssay AID2198 (Vanderbilt High Throughput Screening Facility, 2009)
pEC50: −log10 of the molar value. Active and inactive are the calls of the source.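 Rule for the calls: active = mean EC50 under 30 µM; inactive = the rest.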

Target: Muscarinic acetylcholine receptor M5 (Homo sapiens) (UniProt P08912)
Experiment: human M5 positive allosteric modulators, SAR follow-up, cell-based, calcium (AID 2198)
Conditions: CHO-K1 hM5, Fluo-4 calcium, ACh EC20 potentiation

Muscarinic acetylcholine receptor M5 (Homo sapiens), sequence (P08912 whole entry, looked up): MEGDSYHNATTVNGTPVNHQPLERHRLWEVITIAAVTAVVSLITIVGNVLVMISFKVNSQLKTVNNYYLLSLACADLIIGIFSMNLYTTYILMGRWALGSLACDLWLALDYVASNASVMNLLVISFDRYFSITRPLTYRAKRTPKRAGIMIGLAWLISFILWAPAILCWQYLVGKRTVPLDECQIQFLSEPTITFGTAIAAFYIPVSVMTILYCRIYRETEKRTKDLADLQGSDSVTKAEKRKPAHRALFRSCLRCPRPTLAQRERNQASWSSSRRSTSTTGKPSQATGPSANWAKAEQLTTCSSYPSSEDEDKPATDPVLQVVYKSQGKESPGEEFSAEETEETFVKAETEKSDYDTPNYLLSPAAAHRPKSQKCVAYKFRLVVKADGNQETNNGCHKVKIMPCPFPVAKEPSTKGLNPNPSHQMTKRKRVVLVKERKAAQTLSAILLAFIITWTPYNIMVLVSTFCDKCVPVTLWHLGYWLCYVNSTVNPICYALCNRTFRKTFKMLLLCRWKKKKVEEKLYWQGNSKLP

Compound	pEC50	EC50
COc1ccc(CN2C(=O)C(=O)c3cc(OC(F)(F)F)ccc32)cc1	5.94	
O=C1C(=O)N(Cc2ccc(C(F)(F)F)cc2)c2ccc(OC(F)(F)F)cc21	5.73	
O=C1C(=O)N(Cc2ccc(C(F)(F)F)cc2)c2ccccc21	5.50	
COc1ccc(CN2C(=O)C(=O)c3ccccc32)cc1		> 30 µM (inactive)
O=C1C(=O)N(Cc2ccc(OC(F)(F)F)cc2)c2ccc(OC(F)(F)F)cc21	5.73	
O=C1C(=O)N(Cc2ccccc2Cl)c2ccc(OC(F)(F)F)cc21	5.39	
COc1cccc(CN2C(=O)C(=O)c3c(Cl)ccc(Cl)c32)c1	5.15	
COc1ccc(CN2C(=O)C(=O)c3cccc(Cl)c32)cc1	5.40	
O=C1C(=O)N(Cc2ccc(C(F)(F)F)cc2)c2c(F)cccc21	5.49	
O=C1C(=O)N(Cc2ccc(Br)cc2)c2c(F)cccc21	5.71	
O=C1C(=O)N(Cc2ccccc2C(F)(F)F)c2c(F)cccc21		> 30 µM (inactive)
O=C1C(=O)N(Cc2ccc(C(F)(F)F)cc2)c2ccc(Cl)cc21	5.48	
O=C1C(=O)N(Cc2ccccc2C(F)(F)F)c2ccc(F)cc21		> 30 µM (inactive)
O=C1C(=O)N(Cc2ccc(Br)cc2F)c2c(Cl)cccc21	5.33	
Cc1ccccc1CN1C(=O)C(=O)c2cc(OC(F)(F)F)ccc21	5.48	
O=C1C(=O)N(Cc2ccc(Br)cc2F)c2ccc(OC(F)(F)F)cc21		> 30 µM (inactive)
COc1cccc(CN2C(=O)C(=O)c3cc(OC(F)(F)F)ccc32)c1	5.77	
